Converted amounts (≈) assume the structure as drawn. Read-outs that look alike come from different tables or passages of the source.
Tests used:
S. aureus UC-76 = test: MIC, microplate broth-dilution, S. aureus UC-76; conditions: Sensitive strain; BHI broth
S. lutea UC-130 = test: agar diffusion (dipped disc) assay, zone of inhibition, S. lutea UC-130; conditions: for zone of inhibition at 1000 µg/mL: Micrococcus luteus
S. aureus UC-570 = test: MIC, microplate broth-dilution, S. aureus UC-570; conditions: Sensitive strain; BHI broth
S. aureus UC 80 = test: agar diffusion (dipped disc) assay, zone of inhibition, S. aureus UC 80; conditions: 1 mg./ml. methanolic solution, 12.7 mm paper disc, 16 hours; NZ = no zone
S. aureus UC-746 = test: MIC, microplate broth-dilution, S. aureus UC-746; conditions: Resistant to tetracycline; BHI broth
[1] = solubility remark in the MIC test; conditions: in place of MIC values

Row | Molecule | MIC S. aureus UC-76 (S. aureus UC-76) [µg/mL] | Agar Diffusion S. aureus UC 80 (inhibition zone) (S. aureus UC 80) | insoluble [1] | other results
1 | 9-O--3-Furoyl- [U-61,461] | 0.50 | 35 | – | Agar Diffusion S. lutea UC-130 (inhibition zone) (S. lutea UC-130; 1 mg./ml. methanolic solution, 12.7 mm paper disc, 16 hours, NZ = no zone): 41; MIC S. aureus UC-570 (S. aureus UC-570): 0.25 µg/mL; MIC S. aureus UC-746 (S. aureus UC-746): 0.50 µg/mL
2 | COC1CC2C=CC3C4OC2(C(C)=CC(C)C(C(C)O)OC1=O)C3C(O)C(C)C4OC(=O)c1ccccc1 (stereo not drawn) [9-O--benzoyl-, 9-O-benzoyl-nodusmicin] | – | – | insoluble | –
3 | COC1CC2C=CC3C4OC2(C(C)=CC(C)C(C(C)OC(=O)c2ccccc2)OC1=O)C3C(O)C(C)C4O (stereo not drawn) [18-O--benzoyl-, 18-O-benzoylnodusmicin] | – | – | – | zone of inhibition at 1000 µg/mL (S. lutea UC-130; UC130, 16 h, read-out: Agar Diffusion S. lutea UC-130 (inhibition zone)): 24 mm; zone of inhibition at 1000 µg/mL (S. lutea UC-130; UC130, read-out: zone of inhibition, S. lutea): 24 mm
4 | COC1CC2C=CC3C4OC2(C(C)=CC(C)C(C(C)O)OC1=O)C3C(O)C(C)C4OC(=O)c1ccc[nH]1 (stereo not drawn) [U-59,760, 9-O-pyrrole-2-carbonyl ester of nodusmicin, reference compound] | 0.125 (≈ 0.242 µM) | 38 | – | –
5 | COC1CC2C=CC3C4OC2(C(C)=CC(C)C(C(C)OC(=O)c2ccc[nH]2)OC1=O)C3C(O)C(C)C4OC(=O)c1ccc[nH]1 (stereo not drawn) [U-60,908, 9, 18-O--Dipyrrole-2-carbonyl-] | – | – | insoluble | –
6 | COC1CC2C=CC3C4OC2(C(C)=CC(C)C(C(C)O)OC1=O)C3C(O)C(C)C4OC(=O)c1cc2ccccc2[nH]1 (stereo not drawn) [U-61,273, 9-O--Indole-2-carbonyl-] | – | – | insoluble | –

Source: patent US4588817A, “Antibiotic nodusmicins” (priority 1984, dated 1986)
